Experimental data from patent US20060287383A1, “Substance exhibiting antidepressant property” (priority 2003, published 2006).
Structures can show the parent of a compound that is named as a salt.

Tests used:
[1] = tested on: white outbred male rats; assay: Porsolt method of behavioral despair (helplessness); assay type: in vivo
Description: The Porsolt method of behavioral despair (helplessness) (Porsolt R. D., Anton G., Blavet N. et al. Behavioral despair in rats: a new model sensitive to antidepressant treatment//Europ. J. Pharmacol. 1978—v. 47.—p. 379-391) is the basic model for assessing antidepressants (Andreeva N. I., ? H. ? . the Methodical Guidelines for Studying Antidepressant Activity of Pharmaceuticals,//Guidebook for Experimental (Preclinical) Studies of New Pharmaceuticals of the RF Ministry of Public Health.—ZAO IIA “Remedium”.—2000.—p. 121-125). The studies have been conducted on white outbred male rats having the weight of 230-250 grams. The animals have been put into a water reservoir having 40 cm in diameter and the depth of 60 cm, for the rats cannot either run out of the reservoir or find a support in it. The water temperature has been maintained at the level of 25° C., the experiments have been conducted within the period from 12 A.M. to 4 P.M. After coming into water the animals begin displaying energetic motion activity aimed at finding a way out of the aversive (troublesome) situation, but then they stop their attempts and take a typical position in the water, while being fully immovable or making insignificant motions necessary for keeping their heads over the water surface. The depressive condition intensity rate in this test is the duration of immobility. The immobility condition has been assessed visually, determining its duration within 10 minutes of the observations. Substances having antidepressant activity alleviate this condition by reducing the immobility time.
The studies have been conducted using animals divided into groups. The animals from the experimental groups have received single doses of phenotropyl in the amounts of 25, 50 and 100 mg/kg or the standard amitriptyline medication in the amount of 10 mg/kg (ampoule solution made by Spofa, the Czech Republic) in the volume corresponding to the dose. The animals from the control group have received distilled water in the same dosage. All the substances have been given intragastrically 40 minutes before the an experiment.

[2] = tested on: white outbred male rats; assay: involuntary swimming in a reservoir with freely moving wheels according to Nomura; assay type: in vivo
Description: The method of involuntary swimming in a reservoir with freely moving wheels (Nomura S., Shimizu J., Kinjo M. et al. A new behavioral test for antidepressant drugs//Eur. J. Pharmacol.—1982.—v. 83.—N 34.—p. 171-175) is widely used for assessing the action of antidepressant agents. The installation is a reservoir having dimensions of 64×30×42 cm and divided into four equal sections where wheels are located. The reservoir is filled with water at the temperature of 25° C., coming to the medium line of the wheels. The studies have been conducted with white outbred male rats having the weight from 230 to 250 grams. The rats have been put into each section in the position where their heads are opposite to the wheels, and then the wheel speed has been recorded for 10 minutes with the use of electromechanical counters. The number of wheel revolutions made by the rat for 10 minutes is recorded.
This study has been conducted with animals from different groups. The rats from the experimental groups have received single doses of phenotropyl in the amounts of 25, 50 and 100 mg/kg or the standard amitriptyline medication in the amount of 10 mg/kg (ampoule solution made by Spofa, the Czech Republic) in the volume corresponding to the dosage. The animals from the control group have received distilled water in the same dosage. All the substances have been given intragastrically 40 minutes before the an experiment.

[3] = tested on: patients having depressive illnesses; assay: clinical study, Hamilton rating scale for depressive illness; assay type: in vivo, human; conditions: 75 mg daily
Description: The Hamilton rating scale for primary depressive illness (Hamilton M. Development of a rating scale for primary depressive illness//Br J Soc Clin Psychol. 1967 December;6(4):278-96) is one of the most widely used scales for assessing depression in the clinical practice.
The material for clinical studies has comprised two homogenous groups of patients having depressive illnesses (40 persons) aged 20-42, out of which 20 patients have taken amitriptyline in the daily dose of 75 mg (25 mg three times a day), and 20 patients have taken phenotropyl in the daily dose of 100 mg as a single dose in the morning time. For a comparative study of the medications antidepressant activity the patients have been enlisted for the study according to the following criteria: the informed consent is available, a light or moderate depressive episode (F32.0 ? F32.1 according to MCB-10) is present, the total score under the Hamilton rating scale is not lower than 18, no contraindications to taking amitriptyline and phenotropyl. The patients have been relatively uniformly assigned to the said groups according to meaningful factors, such as sex and age, time for which the condition exists and syndrome characteristics. The condition existence time varied from 1 to 2 years. The therapy efficiency has been assessed on the basis of a degree of reduction of the total score under the Hamilton scale, namely: full effect—reduction by more than 50%; partial reduction—from 25 to 50%; no effect—reduction by less than 25%. The condition of the patients has been assessed during the background studies and at each 7th day of the therapy for the whole 6 weeks of the therapy. In total, seven examinations have been carried out. The comparative data on the general efficiency pf the medications, as given in Table 5, evidence a rather quick reduction of the depressive illness psychopathological symptoms in the process of administering phenotropyl and amitriptyline. However, the antidepressant effect of phenotropyl has been more pronounced on the 7th and 14th days of the therapy. The full reduction has been attained in 25% and 40% of the patients, respectively. […] From the 28th day of the therapy the number of the patients experiencing the maximum effect has not been changed either on the 35th or the 42nd days of the therapy. Out of 20% of the patients experiencing a partial reduction of the depressive symptoms, 15% have been patients with the reduction from 25% to 50%, and 5%—patients with the reduction by less than 25%.

[4] = tested on: white outbred male mice; assay: haloperidol catalepsy method; assay type: in vivo; conditions: haloperidol 0.5 mg/kg intraperitoneally alone
Description: As one of the indicators for antidepressant antagonism in relation to depriming effects of neuroleptics, neuroleptic-induced catalepsy is used. The maintenance of catalepsy in animals is assessed by their ability to maintain set or unusual poses for a definite time (Morpurgo C. Effects of antiparkinson drugs on phenothiazine induced catatonia reaction//Arch. Int Pharmacodyn., 1962, vol. 137 No 1-2, p. 84-94). Reduction or prevention of catalepsy is one of the factors showing antidepressant activity in studied substances.
The studies have been conducted with white outbred male mice having the weight from 18 to 24 grams. Haloperidol is introduced intraperitoneally in a single dose of 0.5 mg/kg. Phenotropyl has been introduced intraperitoneally in doses of 50, 100 and 200 mg/kg in 15 minutes after the introduction of haloperidol. The catalepsy intensity has been assessed by time (in seconds) of keeping the animals in an uncomfortable pose where their front legs have been put onto a bar having the height of 4 cm, in 60, 120 and 180 minutes after introducing the said medications. It is shown in Table 4 that phenotropyl clearly antagonizes haloperidol-induced catalepsy.

[5] = tested on: white outbred male rats; assay: reserpine depression method according to Bernardi; assay type: in vivo; conditions: reserpine 2.5 mg/kg intraperitoneally alone
Description: The method of reserpine depression according to Bernardi (Bernardi D., Paglialunga S., Jori A. Peripheral and central components in the hyperthermic effect of desipramine in rezerpinized rats//J. Pharm. Pharmacol., 1968, vol. 20, p. 204-209) is one of the basic models for assessing antidepressants in studies of new pharmaceuticals. The studies have been conducted with white outbred male rats having the weight from 200 to 240 grams. Reserpine has been introduced intraperitoneally, as a single dose of 2.5 mg/kg 2 hours before the introduction of phenotropyl (intraperitoneally, single doses of 25, 50, 100 and 200 mg/kg) and 3 hours before starting the study. The animals from the control group have received intraperitoneally distilled water only in the same volumes as the animals from the experimental groups. The antidepressant activity of phenotropyl has been assessed by its effect on sedation (suppression of the orientation and motion activity), intensity of ptosis and diarrhea, which have been caused by reserpine in the rats.
The orientation and motion activity of the animals has been studied for three minutes in a special activity meter (Varimex). The intensity of ptosis and diarrhea has been assessed on the standard 4-point scale (Mashkovsky M. D., Andreeva N. I., Polezhaeva A. I. Pharmacology of Antidepressants. Moscow, Medicine Publishers, 1983, p. 194-199).

## CN(C)CCC=C1c2ccccc2CCc2ccccc21 [Amitriptyline, 5-(3-dimethylaminopropylidene)-10,11-dihydrodibenzocycloheptine hydrochloride, reference compound]
[1]; 10 mg/kg intragastrically
  effect on immobility time: reliably reduced the immobility time
[1]; single dose 10 mg/kg intragastrically 40 minutes before, 10 minutes observation
  Time of immobility: 166.1 ± 46.5 s
[2]; 10 mg/kg intragastrically
  effect on number of wheel revolutions: reliably increasing the number of wheel revolutions
[2]; single dose 10 mg/kg intragastrically 40 minutes before
  Number of wheel revolutions for 10 minutes: 115.1 ± 24.6
[3]; 7th therapy day
  patients (%) with reduction of total Hamilton score 25-49: 20%
  patients (%) with reduction of total Hamilton score <25: 80%
  patients (%) with reduction of total Hamilton score ≧50: 0%
  patients (n) with reduction of total Hamilton score 25-49: 4
  patients (n) with reduction of total Hamilton score <25: 16
  patients (n) with reduction of total Hamilton score ≧50: 0
[3]; 14th therapy day
  patients (%) with reduction of total Hamilton score 25-49: 30%
  patients (%) with reduction of total Hamilton score <25: 50%
  patients (%) with reduction of total Hamilton score ≧50: 20%
  patients (n) with reduction of total Hamilton score 25-49: 6
  patients (n) with reduction of total Hamilton score <25: 10
  patients (n) with reduction of total Hamilton score ≧50: 4
[3]; 21st therapy day
  patients (%) with reduction of total Hamilton score 25-49: 30%
  patients (%) with reduction of total Hamilton score <25: 30%
  patients (%) with reduction of total Hamilton score ≧50: 40%
  patients (n) with reduction of total Hamilton score 25-49: 6
  patients (n) with reduction of total Hamilton score <25: 6
  patients (n) with reduction of total Hamilton score ≧50: 8
[3]; 28th therapy day
  patients (%) with reduction of total Hamilton score 25-49: 10%
  patients (%) with reduction of total Hamilton score <25: 20%
  patients (%) with reduction of total Hamilton score ≧50: 70%
  patients (n) with reduction of total Hamilton score 25-49: 2
  patients (n) with reduction of total Hamilton score <25: 4
  patients (n) with reduction of total Hamilton score ≧50: 14
[3]; 35th therapy day
  patients (%) with reduction of total Hamilton score 25-49: 5%
  patients (%) with reduction of total Hamilton score <25: 10%
  patients (%) with reduction of total Hamilton score ≧50: 85%
  patients (n) with reduction of total Hamilton score 25-49: 1
  patients (n) with reduction of total Hamilton score <25: 2
  patients (n) with reduction of total Hamilton score ≧50: 17
[3]; 42nd therapy day
  patients (%) with reduction of total Hamilton score 25-49: 5%
  patients (%) with reduction of total Hamilton score <25: 10%
  patients (%) with reduction of total Hamilton score ≧50: 85%
  patients (n) with reduction of total Hamilton score 25-49: 1
  patients (n) with reduction of total Hamilton score <25: 2
  patients (n) with reduction of total Hamilton score ≧50: 17

## O=C(CCCN1CCC(O)(c2ccc(Cl)cc2)CC1)c1ccc(F)cc1 [Haloperidol, reference compound]
[4]; 60 minutes
  Catalepsy: 1.3 ± 0.8 s
[4]; 120 minutes
  Catalepsy: 27.5 ± 8.5 s
[4]; 180 minutes
  Catalepsy: 63.4 ± 2.8 s

## COC(=O)[C@H]1[C@H]2C[C@@H]3c4[nH]c5cc(OC)ccc5c4CCN3C[C@H]2C[C@@H](OC(=O)c2cc(OC)c(OC)c(OC)c2)[C@@H]1OC [Reserpine, reference compound]
[5]; 4-point scale
  Diarrhea: 2.4 ± 0.1 points
[5]; 3 hours before study, 4-point scale
  Ptosis: 3.6 ± 0.2 points
[5]; three minutes, Varimex
  Number of pulses in activity meter: 11.8 ± 2.2
